Tests used:
Assay type in all cases: in vivo, mouse
[1] = tested on: Capan-2 pancreatic tumor xenografts; experiment: CAPAN-2 pancreatic xenograft tumor growth; details: for TGI: 48 days
A498 RCC xenograft = A498 RCC xenograft tumor growth
Protocol: (§1) Xenograft RCC models were generated as follows: Female NOD.SCID mice (6-8 weeks of age) were injected with A498 RCC cells (5×10^6 cells/mouse), female Balb/c Nude mice (6-8 weeks old) were implanted with 786-O RCC cells (5×10^6 cells/mouse) or Caki-1 RCC cells (6×10^6 cells/mouse), female Athymic Nude-Foxn1nu mice (7-8 weeks of age) were implanted with MFE280 endometrial cells (10×10^6 cells/mouse). Cells were implanted into the flank of animals.
(§2) Once tumor tumors reached volume of typically 150-250 mm^3, animals were randomized by tumor volume into the treatment groups of 8 or 10 animals per group. In the single animal trial with RCC PDX models, only one animal per group was enrolled.
(§3) Body weight and tumor volume were measured twice weekly. Tumor volume was calculated using the formula [tumor volume (mm^3)=π/6×length×width^2] and plotted as means+SEM. The percentage of tumor growth inhibition was calculated at the end of the study using the formula: […], if ΔT>0, ΔT, mean tumor volume of the drug-treated group on the observation day of the study—mean tumor volume of the drug-treated group on initial day of dosing; ΔC, mean tumor volume of the control group on the observation day of the study—mean tumor volume of the control group on initial day of dosing. Regression was calculated using the formula=100×ΔT/Tinitial, if ΔT<0. Animals with >50% regressions were partial responders. Animals with tumor volume of 0 (no measurable tumor) were considered as complete responders, and animals with <50% tumor regression and 30% growth over the baseline were considered as stable disease. Animals with tumors>30% increase over the baseline were considered progressive disease. The % change in body weight was calculated by the formula (body weight on observation day−body weight on initial day)/body weight on initial day×100%.

[2] = tested on: ATF4 targets in gastric PDX (GAO 114-R19P6); experiment: ATF4 target proteins in gastric PDX; details: 7 days, 1 h post-dose (FIG. 81, 82)
Protocol: Samples were put in 500 μL of Novex lysis buffer consisting of 2× Novex Tris-Glycine SDS sample buffer (ThermoFisher LC2676), 1× Phosphatase Inhibitor Cocktail III (Sigma P0044), 1× PhosphataseArrest I (Gbioscience 113P-D), 1×2-mercaptoethanol (Gibco 21985023), 1× Benzonase (EMD Millipore Corp 70746-3), and 1× Protease inhibitor cocktail tablet (Roche/Sigma 11836170001). Samples were homogenized with the Polytron and heated for 10 min at 95 °C. They were then centrifuged at max speed for 10 min and the supernatant was transferred. Protein concentrations of samples were measured using the Pierce 660 nm Protein assay kit (Thermo Scientific 22660) according to the manufacturer's instructions.
Western Blot analysis was performed on the SimpleWestern high-throughput protein analysis platform (ProteinSimple 004-650) according to manufacturer's protocol using a 12-230 kDA Separation Module (ProteinSimple SM-W004) and Total Protein Detection Module (ProteinSimple DM-TP01). Antibodies used were: (Add info for other antibodies used) pPERK (Lilly; 1:50) and PERK (Cell Signaling Technology 5683; 1:200). All protein analytes were normalized to total protein loaded on capillary.
Gastric PDX model (GAO 114-R19P6) PD arm sampled after 7 days, 1 h post-dose.

[3] = tested on: myeloid, lymphoid and tumor cells in MB49 model; experiment: flow cytometry of tumor, lymph node and blood cells in MB49 model; details: 10, 30 mg/kg (FIG. 8)
Protocol: C57BL/6 mice were subcutaneously inoculated with MB49 cells, and treatment started on day 8 post cell inoculation. A group of animals (n=10/group) received either vehicle, HC-5404 (PO, BID) (3 mg/kg, 10 mg/kg, or 30 mg/kg), 5 mg/kg anti-PD-1 antibody (aPD-1) (RMP1-14) (IP, BIW), or the combination of both. At various timepoints, animals were sacrificed, and flow cytometry was performed on blood or single cell suspensions from tumors or lymph nodes (n=6).
Tumor tissue samples were obtained 7 days post treatment (14 days post inoculation). Single cells were prepared by enzymatic digestion of tumor tissues and subsequently analyzed by flow cytometry on a Cytek Aurora. Expression of IFNAR1 (A) and PD-L1 (B) on the myeloid populations and tumors were shown.
Surface calreticulin was analyzed by flow cytometry on MB49 tumor cells d7 post treatment.
Single cell suspensions were washed in PBS twice and then stained with the LIVE/DEAD fixable blue dead cell stain (Invitrogen cat #L23105) at 1:3000 dilution for 30 minutes at 4 °C. […]
LN cells from day 14 post treatment samples were analyzed by flow cytometry. […]
Whole blood was collected on the indicated date post treatment in a MB49 model. IFNAR1 expression was determined by flow cytometry and gated on CD14+ monocytes […]

Caki-1 RCC xenograft = Caki-1 RCC xenograft tumor growth
Protocol: as §1, §2, §3

[4] = 10 and 30 mg/kg PO BID tested, 28 days (FIG. 36)

## Cc1cc(NC(=O)[C@H](O)c2cc(F)cc(F)c2)ccc1-c1cnc(N)c(C(=O)NC(C)C)c1 [HC-5404, (R)-2-amino-5-(4-(2-(3,5-difluorophenyl)-2-hydroxyacetamido)-2-methylphenyl)-N-isopropylnicotinamide]
[1]; 30 mg/kg PO BID
  TGI: 50%
[1]; 100 mg/kg PO BID
  TGI: 43%
[1]; 30 vs 100 mg/kg BID
  difference between dose levels in TGI: No difference between the dose levels
A498 RCC xenograft; [4]
  TGI: ~41%
A498 RCC xenograft; single agent: HC-5404 30 mg/kg PO BID or sunitinib 20 mg/kg PO QD (FIG. 31)
  TGI: ~ 40%
[2]
  ATF4 target genes: induces ATF4 target genes, including ASNS, PSAT1 and other enzymes involved in amino acid metabolism
[3]
  effect on IFNAR1 on monocytes in peripheral blood: also detected on monocytes in peripheral blood
Caki-1 RCC xenograft; [4]
  effect on growth of Caki-1 model: minimal effect
Caki-1 RCC xenograft; HC-5404 or sunitinib monotherapy, compared with A498 (FIG. 32)
  sensitivity of Caki-1 to monotherapy: far less sensitive

Source: patent US20260373132A1, “PERK INHIBITORHC-5404 IN COMBINATION WITH ANTI-PD-1 ANTIBODY AND/OR AN ANTIANGIOGENETIC AGENT FOR USE IN THE TREATMENT OF CANCER” (HIBERCELL, INC., priority 2022, published 2026)
